The assay has as its target WDR5 (Homo sapiens, UniProt P61964). Description: Competition-based fluorescence polarization anisotropy assay. Conditions: binding to WDR5; displacement of FITC-labeled small molecule probe (analogous to Example J2 or HCH-25) or peptide probe FITC-AHx-SEEEIDVVSV; pH 6.0; Ki converted from IC50. The essentials:
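Ki values derive from displacement of either a fluorescent small-molecule probe or a FITC-peptide probe from WDR5, monitored by fluorescence polarization. Assay run at pH 6.0 in 200 mM phosphate with 300 mM NaCl, 0.5 mM TCEP and 0.1% Chaps.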

`O=C(O)c1cc(Cl)cc(NS(=O)(=O)c2cc(Br)cc(Cl)c2O)c1O` [Example J4, 3-((5-Bromo-3-chloro-2-hydroxyphenyl)sulfonamido)-5-chloro-2-hydroxybenzoic acid] returned a Ki of 60 nM. This counts as double-digit nanomolar.
As for `CCc1cc(Br)cc(S(=O)(=O)Nc2cc(OC(F)(F)F)cc(C(=O)NCC(O)CC)c2O)c1O` (stereo not drawn) [HCH-40, 3-((5-Bromo-3-ethyl-2-hydroxyphenyl)sulfonamido)-2-hydroxy-N-(2-hydroxybutyl)-5-(trifluoromethoxy)benzamide], the figure is 350 nM; as for `N#CC1(c2cc(NS(=O)(=O)c3cc(Br)cc(Cl)c3O)c(O)c(C(N)=O)c2)CCCCC1` [Example J235, 3-((5-Bromo-3-chloro-2-hydroxyphenyl)sulfonamido)-5-(1-cyanocyclohexyl)-2-hydroxybenzamide], 80 nM.
The value for `COC1CCN(C(=O)c2cc(C3(C#N)CCC3)cc(NS(=O)(=O)c3cc(Br)ccc3O)c2O)C1` (stereo not drawn) [Example J221, 5-Bromo-N-(5-(1-cyanocyclobutyl)-2-hydroxy-3-(3-methoxypyrrolidine-1-carbonyl)phenyl)-2-hydroxybenzenesulfonamide] was 27800 nM; that for `O=C(NCCN1CCOCC1)c1c(O)c(NS(=O)(=O)c2cc(Br)ccc2O)cc(C2CC2)c1F` [Example J125, 3-((5-Bromo-2-hydroxyphenyl)sulfonamido)-5-cyclopropyl-6-fluoro-2-hydroxy-N-(2-morpholinoethyl)benzamide] was 1320 nM; that for `COc1ccc(Br)cc1S(=O)(=O)Nc1cc(Cl)cc(C(=O)NCCCO)c1O` [Example J53, 3-((5-Bromo-2-methoxyphenyl)sulfonamido)-5-chloro-2-hydroxy-N-(3-hydroxypropyl)benzamide] was 2070 nM.
Molecule `CS(=O)(=O)c1cc(NS(=O)(=O)c2cc(Br)ccc2O)cc(S(F)(F)(F)(F)F)c1` [Example S13, 5-Bromo-2-hydroxy-N-(3-(methylsulfonyl)-5-(pentafluoro-λ^6-sulfaneyl)phenyl)benzenesulfonamide] yielded a Ki of 420 nM.
As for “Methyl 4-chloro-2-(N-(5-chloro-2-hydroxy-3-nitrophenyl)sulfamoyl)benzoate [NE4]”, the figure is 1810 nM; as for `O=S(=O)(Nc1cc(C2CC2)ccc1O)c1cc(Br)ccc1O` [JDM-10-108A, 5-Bromo-N-(5-cyclopropyl-2-hydroxyphenyl)-2-hydroxybenzenesulfonamide], 820 nM.
As for `COc1ccc(Br)cc1S(=O)(=O)Nc1cc(C2(C#N)CCC2)cc(S(C)(=O)=O)c1O` [Example S59, 5-Bromo-N-(5-(1-cyanocyclobutyl)-2-hydroxy-3-(methylsulfonyl)phenyl)-2-methoxybenzenesulfonamide], the figure is 310 nM.
The value for `O=C(O)c1cc(F)cc(NS(=O)(=O)c2cc(Br)ccc2O)c1O` [Example J107, 3-((5-Bromo-2-hydroxyphenyl)sulfonamido)-5-fluoro-2-hydroxybenzoic acid] was 1480 nM; that for `O=C(NC1CCOC1)c1cc(C2CC2)cc(NS(=O)(=O)c2cc(Br)ccc2O)c1O` (stereo not drawn) [Example J90, 3-((5-Bromo-2-hydroxyphenyl)sulfonamido)-5-cyclopropyl-2-hydroxy-N-(tetrahydrofuran-3-yl)benzamide] was 740 nM; that for `COCCCNC(=O)c1cc(C2CC2)cc(NS(=O)(=O)c2cc(Br)ccc2O)c1O` [Example J88, 3-((5-Bromo-2-hydroxyphenyl)sulfonamido)-5-cyclopropyl-2-hydroxy-N-(3-methoxypropyl)benzamide] was 600 nM.
The molecule `COC[C@@H]1CCCN1C(=O)c1cc(OC(F)(F)F)cc(NS(=O)(=O)c2cc(Br)ccc2OC)c1O` [Example J180, (S)-5-Bromo-N-(2-hydroxy-3-(2-(methoxymethyl)pyrrolidine-1-carbonyl)-5-(trifluoromethoxy)phenyl)-2-methoxybenzenesulfonamide] gave a Ki of 4020 nM. This Ki lies about 6.7-fold higher than the previous one.
`N#CC1(c2cc(NS(=O)(=O)c3cc(Br)ccc3O)c(O)c(C(=O)NCC3CCCO3)c2)CCC1` (stereo not drawn) [Example J220, 3-((5-Bromo-2-hydroxyphenyl)sulfonamido)-5-(1-cyanocyclobutyl)-2-hydroxy-N-((tetrahydrofuran-2-yl)methyl)benzamide] came in with a Ki of 1030 nM.
`O=C(O)c1c(O)c(NS(=O)(=O)c2cc(Br)cc(Cl)c2O)cc(C2CC2)c1F` [Example J118, 3-((5-Bromo-3-chloro-2-hydroxyphenyl)sulfonamido)-5-cyclopropyl-6-fluoro-2-hydroxybenzoic acid] registered a Ki of 350 nM.
As for `CNC(=O)c1cc(C(C)(C)C)cc(NS(=O)(=O)c2cc(Br)ccc2O)c1O` [Example J202, 3-((5-Bromo-2-hydroxyphenyl)sulfonamido)-5-(tert-butyl)-2-hydroxy-N-methylbenzamide], the affinity, expressed as Ki, was 1080 nM.
Regarding `O=C(O)c1cc(Cl)cc(NS(=O)(=O)c2cc(Br)cc3cccnc23)c1O` [Example J13, 3-((6-Bromoquinoline)-8-sulfonamido)-5-chloro-2-hydroxybenzoic acid], the Ki is 780 nM. The Ki values of the last two molecules are within 1.5-fold of each other.
As for `O=C(NC1CC(O)C1)c1cc(OC(F)(F)F)cc(NS(=O)(=O)c2cc(Br)cc(Cl)c2O)c1O` (stereo not drawn) [HCH-61, 3-((5-Bromo-3-chloro-2-hydroxyphenyl)sulfonamido)-2-hydroxy-N-(3-hydroxycyclobutyl)-5-(trifluoromethoxy)benzamide], the figure is 240 nM; as for `O=C(NCCO)c1cc(Cl)cc(NS(=O)(=O)c2cc(Br)ccc2O)c1O` [Example J16, 3-((5-Bromo-2-hydroxyphenyl)sulfonamido)-5-chloro-2-hydroxy-N-(2-hydroxyethyl)benzamide], 540 nM.
The value for `CN(C)CCCS(=O)(=O)c1cc(Cl)cc(NS(=O)(=O)c2cc(Br)cc(Cl)c2O)c1` [Example S51, 5-Bromo-3-chloro-N-(3-chloro-5-((3-(dimethylamino)propyl)sulfonyl)phenyl)-2-hydroxybenzenesulfonamide] was 1450 nM.
As to `O=S(=O)(Nc1cc(Cl)ccc1O)c1cc(Br)ccc1O` [HCH-1-143-2, 5-Bromo-N-(5-chloro-2-hydroxyphenyl)-2-hydroxybenzenesulfonamide], the affinity corresponds to a Ki of 1250 nM.
In turn, `COCCN(C)C(=O)c1cc(C2CC2)cc(NS(=O)(=O)c2cc(Br)ccc2O)c1O` [Example J83, 3-((5-Bromo-2-hydroxyphenyl)sulfonamido)-5-cyclopropyl-2-hydroxy-N-(2-methoxyethyl)-N-methylbenzamide] gave a Ki of 6380 nM.
As for `CNC(=O)c1cc(S(F)(F)(F)(F)F)cc(NS(=O)(=O)c2cc(Br)ccc2O)c1O` [Example S66, 3-((5-Bromo-2-hydroxyphenyl)sulfonamido)-2-hydroxy-N-methyl-5-(pentafluoro-λ^6-sulfaneyl)benzamide], the Ki came out at 20 nM.
The molecule `CCc1cc(Br)cc(S(=O)(=O)Nc2cc(C3(C#N)CCC3)cc(C(=O)NC)c2O)c1O` [Example J213, 3-((5-Bromo-3-ethyl-2-hydroxyphenyl)sulfonamido)-5-(1-cyanocyclobutyl)-2-hydroxy-N-methylbenzamide] gave a Ki of 12200 nM.
As for `CS(=O)(=O)c1cc(Cl)cc(NS(=O)(=O)c2cc(Br)cc3c2OCC3)c1O` [Example S55, 5-Bromo-N-(5-chloro-2-hydroxy-3-(methylsulfonyl)phenyl)-2,3-dihydrobenzofuran-7-sulfonamide], the figure is 850 nM; as for `O=S(=O)(Nc1cc(C2CC2)cc(S(=O)(=O)C2CCCO2)c1)c1cc(Br)ccc1O` (stereo not drawn) [Example S15-2], 8620 nM.
As for `COc1cc(Cl)c(Br)cc1S(=O)(=O)Nc1cc(C2CC2)cc(C(=O)O)c1O` [Example J71, 3-((5-Bromo-4-chloro-2-methoxyphenyl)sulfonamido)-5-cyclopropyl-2-hydroxybenzoic acid], the figure is 2720 nM; as for `O=S(=O)(Nc1cc(Cl)cc(S(=O)(=O)NCC2CCCO2)c1O)c1cc(Br)cc(Cl)c1O` (stereo not drawn) [Example S32, 5-Bromo-3-chloro-N-(5-chloro-2-hydroxy-3-(N-((tetrahydrofuran-2-yl)methyl)sulfamoyl)phenyl)-2-hydroxybenzenesulfonamide], 440 nM.
The value for `COC[C@H]1CCCN1C(=O)c1cc(OC(F)(F)F)cc(NS(=O)(=O)c2cc(Cl)ccc2O)c1O` [Example J177, (R)-5-Chloro-2-hydroxy-N-(2-hydroxy-3-(2-(methoxymethyl)pyrrolidine-1-carbonyl)-5-(trifluoromethoxy)phenyl)benzenesulfonamide] was 4860 nM.
As to `CNC(=O)c1c(O)c(NS(=O)(=O)c2cc(Br)cc(Cl)c2O)cc(C2CC2)c1F` [Example J146, 3-((5-Bromo-3-chloro-2-hydroxyphenyl)sulfonamido)-5-cyclopropyl-6-fluoro-2-hydroxy-N-methylbenzamide], the Ki worked out at 40 nM.
Regarding `O=C(Nc1nc[nH]n1)c1cc(Cl)cc(NS(=O)(=O)c2cc(Br)ccc2O)c1` [Example J67, 3-((5-Bromo-2-hydroxyphenyl)sulfonamido)-5-chloro-N-(1H-1,2,4-triazol-3-yl)benzamide], the Ki was found to be 360 nM.
As for `CC(C)[S+]([O-])c1cc(Cl)cc(NS(=O)(=O)c2cc(Br)ccc2O)c1O` (stereo not drawn) [Example S23.3, 5-Bromo-N-(5-chloro-2-hydroxy-3-(isopropylsulfinyl)phenyl)-2-hydroxybenzenesulfonamide], the figure is 360 nM; as for `CNC(=O)c1cc(Cl)cc(NS(=O)(=O)c2cc(Br)ccc2O)c1` [Example S70, 3-((5-Bromo-2-hydroxyphenyl)sulfonamido)-5-chloro-N-methylbenzamide], 2930 nM; as for `CN1CCN(CCNS(=O)(=O)c2cc(Cl)cc(NS(=O)(=O)c3cc(Br)cc(Cl)c3O)c2O)CC1` [Example S33, 5-Bromo-3-chloro-N-(5-chloro-2-hydroxy-3-(N-(2-(4-methylpiperazin-1-yl)ethyl)sulfamoyl)phenyl)-2-hydroxybenzenesulfonamide], 730 nM.
`CS(=O)(=O)c1cc(Cl)cc(NS(=O)(=O)c2cc(Br)ccc2O)c1` [Example S6, 5-Bromo-N-(3-chloro-5-(methylsulfonyl)phenyl)-2-hydroxybenzenesulfonamide] returned a Ki of 1230 nM. This Ki is about 1.7-fold higher than that of the molecule before.

The values above are taken from patent US12398097B2, “WDR5-MYC inhibitors” (Vanderbilt University, priority 2019, dated 2025).
